Laboratory results taken from patent US11286263B2, “Macrocyclic fluorine substituted indole derivatives” (The Broad Institute, Inc., priority 2017, dated 2022).

Key:
[1] = system: SUDHL5; assay: Induction of caspase-3/7 activity, SUDHL5 (Assay 4); assay type: cell-based; settings: SUDHL5 cells, 3 h, Caspase-Glo 3/7; median
Summary of the method: (§1)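 DLBCL lines treated with compounds for 3 h at 37° C.; caspase-3/7 activity read by Caspase-Glo 3/7 luminescence. Medium-only background subtracted; EC50 fitted with bottom fixed at 1 and top set to reference compound's maximal induction.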

[2] = system: A2780; assay: Antiproliferation assay A2780 (Assay 7); assay type: cell-based; settings: A2780 cells, 72 h, CellTiter-Glo; single determinations; read-out: IC50 Antiproli A2780
Summary of the method: (§2)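 Treated cells sat 72 h in a humidified 37 °C incubator, outer wells unused, before CellTiter-Glo reagent and a 10 min wait preceded luminescence reading; identical measurement of a parallel day 0 plate defined time zero.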

[3] = target: BCL-XL (Homo sapiens (Human), UniProt Q07817); assay: Protein-protein interaction assay BCL-XL/Bad BH3 peptide (BCL-XL assay), TR-FRET; assay type: binding; settings: median
[4] = system: SUDHL10; assay: Induction of caspase-3/7 activity, SUDHL10 (Assay 4); assay type: cell-based; settings: SUDHL10 cells, 3 h, Caspase-Glo 3/7; median
Summary of the method: as §1

[5] = system: SUDHL5; assay: Antiproliferation assay SUDHL5 (Assay 7); assay type: cell-based; settings: SUDHL5 cells, 72 h, CellTiter-Glo; median; read-out: IC50 Antiproli SUDHL5 [M] (median)
Summary of the method: as §2

BCL-XL, sequence (Q07817 1-212): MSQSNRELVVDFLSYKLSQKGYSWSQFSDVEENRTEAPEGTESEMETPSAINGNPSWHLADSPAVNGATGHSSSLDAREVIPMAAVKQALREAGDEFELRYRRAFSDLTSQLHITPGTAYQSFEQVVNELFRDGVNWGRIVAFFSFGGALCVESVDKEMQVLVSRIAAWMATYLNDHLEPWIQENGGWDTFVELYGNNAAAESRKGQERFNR

Molecule: Cc1c2c(nn1C)CNCCCCn1c(C(=O)O)c(CCCOc3cccc4ccccc34)c3ccc(F)c-2c31 (single isomer, unassigned; enantiomer 1) [Example 48, 4-fluoro-2,3-dimethyl-7-{3-[(naphthalen-1-yl)oxy]propyl}-10,11,12,13,14,15-hexahydro-2H-pyrazolo[3′,4′:8,9][1,6]diazacycloundecino[10,11,1-hi]indole-8-carboxylic acid (enantiomer 1)]
- EC50 [1]: 1200 nM
- IC50 [2]: 7170 nM
- IC50 [3]: > 20000 nM
- EC50 [4]: 2100 nM
- IC50 [5]: 1.4e-06 M

Molecule: (rac)-1-(3-((2,3-dihydro-1H-inden-4-yl)oxy)propyl)-12-ethyl-13-fluoro-11-methyl-4,5,6,7,9,11-hexahydropyrazolo[4′,3′:9,10][1]oxa[6]azacycloundecino[8,7,6-hi]indole-2-carboxylic acid [Example 30]
- EC50 [1]: 870 nM
- IC50 [2]: 11200 nM
- IC50 [3]: > 20000 nM
- EC50 [4]: 1700 nM
- IC50 [5]: 1.5e-06 M
